Assay type in all cases: in vivo
The test system of assay [1] is wheat plants of the imidazolinone tolerant variety ‘BW755’. In words: Transpiration (water loss) of cut wheat plants as indicator for drought tolerance, fluxapyroxad / imazamox (Example 1). The conditions noted are these: solo; for Mean water loss: 24 h at 25° C.; for Observed efficacy: decrease of water loss vs control, 24 h. As for the experimental part:
The transpiration of wheat plants treated or not treated with fluxapyroxad solo, imazamox solo, and mixtures thereof was assessed as an indicator for drought tolerance. 10 to 14 days old wheat plants were cut above the ground and placed into Eppendorf caps containing 2.2 ml of the test solution. The wheat plants were incubated for 24 h at 25° C. and 50% relative humidity in a growth chamber. The weight of the Eppendorf cap including the test solution but excluding the plant was assessed before and after incubation. The difference in weight is recorded as the loss of water through transpiration. This assay can be used to asses the drought tolerance of plants.
In the present example wheat plants of the imidazolinone tolerant variety ‘BW755’ were grown at 18° C. for 10 days in the greenhouse prior to the treatment and the incubation. 10 plants per treatment were treated and incubated as described. Fluxapyroxad and imazamox were dissolved in 0.5% DMSO. The 0.5% DMSO solution consisted of 0.5% DMSO dissolved in water. The tested concentrations are described in table 2. Control plants were treated with the blank 0.5% DMSO solution only.
The efficacy of the tested compounds and respective mixtures was calculated as % of water loss compared to the control: […]
(§1) a corresponds to water loss of plants after incubation in the treated plants in g and b corresponds to water loss of plants after incubation in the control in g.

Assay [2] has as its system potted imidazolinone tolerant wheat, variety ‘BW755’. In words: Greenhouse pot trial, total shoot biomass (dry weight) of wheat, fluxapyroxad / imazamox (Example 2). The conditions noted are these: solo; for Shoot dry weight: 7 days following the last treatment; for Observed efficacy: increase of biomass vs untreated control. As for the experimental part: (§2) Wheat was grown in 2010 in the greenhouse at the agricultural center at Limburgerhof, Germany. The imidazolinone tolerant variety ‘BW755’ was planted in pots. The trial was setup with 8 replications with one pot 10 plants each per replication.
The active ingredients were used as formulations. The formulations were used in the product rates given below and in table 3. The products were applied in a total spray volume of 375 l/ha. Products were diluted in water. The spray solution was applied in a spray cabinet using a spray boom with flat fan nozzles.
Imazamox was applied once as Raptor™ (120 g active per liter soluble concentrate) when the wheat plants had the first leaf fully developed (BBCH 11). Fluxapyroxd was applied once as an experimental emulsion concentrate (62.5 g active ingredient per liter) at 2 to 3 leaves fully developed (BBCH 12/13). The application of the mixture was carried out as a sequence, wherein Raptor™ was applied when the first leave had developed while the fluxapyroxad formulation was applied when 2-3 leaves had developed.
Total shoot biomass was assessed (table 3) by harvesting all plants of a pot 7 days following the last treatment (expressed as g per pot). Afterwards, dry weight of total shoot biomass per pot was evaluated. After measuring fresh weight, the samples were dried in a drying cabinet at 65° C. for two days. The efficacy was calculated as % increase of biomass in the treatments compared to the untreated control:
(§3) a corresponds to the biomass of the treated plants in g/pot and b corresponds to the biomass of the untreated (control) plants in g/pot

The test system of assay [3] is wheat plants of the imidazolinone tolerant variety ‘BW755’. In words: Transpiration (water loss) of cut wheat plants as indicator of drought tolerance, fluxapyroxad / imazethapyr (Example 3). The conditions noted are these: for Mean water loss / Observed efficacy: solo; for Mean water loss: 24 h; for Observed efficacy: decrease of water loss vs control. As for the experimental part: The transpiration as an indicatior of drought tolerance of wheat plants treated or not treated with fluxapyroxad solo, imazethapyr solo, and mixtures thereof was assessed. 10 to 14 days old wheat plants were cut above the ground and placed into Eppendorf caps containing 2.2 ml of the test solution. The wheat plants were incubated for 24 h at 25° C. and 50% relative humidity in a growth chamber. The weight of the Eppendorf cap including the test solution but excluding the leaves was assessed before and after incubation. The difference in weight was recorded as the loss of water through transpiration. This assay is generally used to asses the drought tolerance of plants.
In the present example wheat plants of the imidazolinone tolerant variety ‘BW755’ were grown at 18° C. for 10 days in the greenhouse prior to the treatment and the incubation. 10 plants per treatment were treated and incubated as described. Fluxapyroxad and imazethapyr were dissolved in 0.5% DMSO. The 0.5% DMSO solution consisted of 0.5% DMSO dissolved in water. The tested concentrations are as described in table 4. Control plants were treated with the blank 0.5% DMSO solution only.
The efficacy of the tested compounds and mixtures was calculated as % of water loss compared to the control: […]
as §1

Assay [4] concerns potted imidazolinone tolerant wheat, variety ‘BW755’. In words: Greenhouse pot trial, total shoot biomass (dry weight) of wheat, fluxapyroxad / imazethapyr (Example 4). The conditions noted are these: solo; for Shoot dry weight: 7 days after the last treatment; for Observed efficacy: increase of biomass vs untreated control. As for the experimental part:
as §2
The active ingredients were used as formulations. The formulations were used in the product rates given below and in table 6. The products were applied in a total spray volume of 375 l/ha. Products were diluted in water. The spray solution was applied in a spray cabinet using a spray boom with flat fan nozzles.
Imazethapyr was applied once as PIVOT 100 SL™ (100 g active per liter soluble concentrate) when the wheat plants had the first leaf fully developed (BBCH 11). Fluxapyroxd was applied once as an experimental emulsion concentrate (62.5 g active ingredient per liter) when 2 to 3 leaves were fully developed (BBCH 12/13). The application of the mixture was applied as a sequence of PIVOT 100 SL™ at the stage when the first leave had developed and while the fluxapyroxad formulation was applied when 2-3 leaves had developed.
Total shoot biomass was assessed (table 6) by harvesting all plants of a pot 7 days after the last treatment (expressed as g per pot). Dry weight of total shoot biomass per pot was evaluated. After measuring fresh weight, the samples were dried in a drying cabinet at 65° C. for two days. The efficacy was calculated as % increase of biomass in the treatments compared to the untreated control:
as §3

[5] abbreviates: 10 ppm, first experiment (table 4).
Where [6] appears, read: 10 ppm, repeated experiment (table 5).
Setting [7] is: 50 ppm, first experiment (table 4).
[8] abbreviates: 100 ppm, first experiment (table 4).
Where [9] appears, read: 100 ppm, repeated experiment (table 5).
The mark [10] stands for this setting: 1 ppm, first experiment (table 4).
The mark [11] stands for this setting: 500 ppm, first experiment (table 4).

The structures appear in SMILES notation.

Regarding `Cn1cc(C(=O)Nc2ccccc2-c2cc(F)c(F)c(F)c2)c(C(F)F)n1` [Fluxapyroxad, N-(3′,4′,5′-trifluorobiphenyl-2-yl)-3-difluoromethyl-1-methyl-1H-pyrazole-4-carboxamide], the Mean water loss in assay [1] (50 ppm) is recorded as 0.794 g; in assay [3] (setting [5]), 0.853 g; in assay [3] (setting [6]) it was 1.266 g; in assay [3] (setting [7]) it was 0.728 g; in assay [3] (setting [8]) it was 0.647 g; in assay [3] (setting [9]), 0.628 g. Moreover, the Observed efficacy in assay [1] (50 ppm) is 17.68%; in assay [1] (50 ppm, listed as fluxapyroxad), “about 18%”; in assay [2] (10.00 g/ha), 3.80%; in assay [2] (50.00 g/ha) it was 1.41%; in assay [2] (100.00 g/ha) it was 1.30%; in assay [3] (setting [5]), 14.59%. For the same compound, the Observed efficacy in assay [3] (setting [6]) is 10.46%; in assay [3] (setting [7]), 27.16%; in assay [3] (setting [8]), 35.22%; in assay [3] (setting [9]), 55.60%; in assay [4] (10 g/ha), −4.75%; in assay [4] (50 g/ha), −7.88%. Further, the Observed efficacy in assay [4] (100 g/ha) is listed as −3.16%. In addition, the Shoot dry weight turned out to be 0.619 g/pot in assay [2] (10.00 g/ha); 0.604 g/pot in assay [2] (50.00 g/ha); 0.604 g/pot in assay [2] (100.00 g/ha); 0.638 g/pot in assay [4] (10 g/ha); 0.617 g/pot in assay [4] (50 g/ha); 0.649 g/pot in assay [4] (100 g/ha).

Turning to `COCc1cnc(C2=NC(C)(C(C)C)C(=O)N2)c(C(=O)O)c1` (stereo not shown) [Imazamox, imazamox], the Mean water loss is 0.907 g in assay [1] (50 ppm), 0.855 g in assay [1] (100 ppm) and 1.001 g in assay [1] (150 ppm). The Observed efficacy is reported as 5.92% in assay [1] (50 ppm); 11.32% in assay [1] (100 ppm); −3.88% in assay [1] (150 ppm); 5.83% in assay [2] (8.75 g/ha); “about 6%” in assay [2] (8.75 g/ha, listed as imazamox); −6.29% in assay [2] (17.50 g/ha). The Observed efficacy in assay [2] (35.00 g/ha) is on record as −13.93%. Besides, the Shoot dry weight is recorded as 0.631 g/pot in assay [2] (8.75 g/ha), 0.559 g/pot in assay [2] (17.50 g/ha) and 0.513 g/pot in assay [2] (35.00 g/ha). For the same compound, the “reduction of dry biomass” value in assay [2] (35 g imazamox per ha) is “about 14%”.

For `CCc1cnc(C2=NC(C)(C(C)C)C(=O)N2)c(C(=O)O)c1` (stereo not shown) [Imazethapyr, imazethapyr], the results for the Mean water loss in assay [3] (setting [10]), in assay [3] (setting [6]) and in assay [3] (setting [11]) were 1.249 g, 1.435 g and 0.878 g, respectively. The Observed efficacy in assay [3] (setting [10]) is reported as −25.04%; in assay [3] (setting [6]), −1.52%; in assay [3] (setting [11]), 12.12%; in assay [4] (17.5 g/ha), −0.72%; in assay [4] (35 g/ha) it was −9.07%. Besides, in assay [3] (alone at 10 ppm, second experiment, table 5), the “effect on water loss, in words” value is given as “tended to be neutral”. The entries for the “reduction of dry biomass” value in assay [4] (17.5 g imazethapyr per ha) and in assay [4] (35 g imazethapyr per ha) were “about 1%” and “about 9%”, respectively. Moreover, the Shoot dry weight in assay [4] (17.5 g/ha) amounted to 0.665 g/pot; in assay [4] (35 g/ha), 0.609 g/pot.

For the origin of these results see patent publication US20120245031A1, “Pesticidal Mixtures” (BASF SE, priority 2009, published 2012).
